Numbers after ± are expanded uncertainties.
Legend:
[1] = 101 kPa, Liquid; for viscosity: Concentric cylinders viscometry; for speed of sound: Single path-length method; for mass density: Vibrating tube method
[2] = refractive index (Na D-line) (dimensionless); details: 101 kPa, Liquid, Standard Abbe refractometry
[3] = xn = mol fraction of the nth substance listed; details: 101 kPa, Liquid, x1 = 1; for viscosity: Concentric cylinders viscometry; for speed of sound: Single path-length method; for mass density: Vibrating tube method
[4] = refractive index (Na D-line) (dimensionless); xn = mol fraction of the nth substance listed; details: 101 kPa, Liquid, Standard Abbe refractometry, x1 = 1

CCCCO [butan-1-ol]
Details	mass density, [1] [kg/m3]	refractive index, [2]	speed of sound, [1] [m/s]	viscosity, [1] [mPa·s]
298.15 K	805.98 ± 0.81	1.3979 ± 0.0028	1239.6 ± 0.51	2.531 ± 0.014
303.15 K	802.13 ± 0.81	1.3959 ± 0.0028	1222.8 ± 0.51	2.232 ± 0.013
308.15 K	798.25 ± 0.81	1.3938 ± 0.0028	1206 ± 0.51	1.975 ± 0.013

CCCCO [butan-1-ol] + CCCCCCCCCCCCCCCC
Details	mass density, [3] [kg/m3]	refractive index, [4]	speed of sound, [3] [m/s]	viscosity, [3] [mPa·s]
293.15 K	809.8 ± 0.81	1.3999 ± 0.0028	1256.6 ± 0.52	2.868 ± 0.015
298.15 K	805.98 ± 0.81	1.3979 ± 0.0028	1239.6 ± 0.52	2.531 ± 0.014
303.15 K	802.13 ± 0.81	1.3959 ± 0.0028	1222.8 ± 0.52	2.232 ± 0.013
308.15 K	798.25 ± 0.81	1.3938 ± 0.0028	1206 ± 0.52	1.975 ± 0.013
313.15 K	794.35 ± 0.81	1.3918 ± 0.0028	1189.4 ± 0.52	1.758 ± 0.012
318.15 K	790.41 ± 0.81	1.3897 ± 0.0028	1172.8 ± 0.52	1.563 ± 0.011
323.15 K	786.42 ± 0.81	1.3876 ± 0.0028	1156.2 ± 0.52	1.399 ± 0.011
328.15 K	782.39 ± 0.81	1.3855 ± 0.0028	1139.7 ± 0.52	1.256 ± 0.01
333.15 K	778.3 ± 0.81	1.3833 ± 0.0028	1123.2 ± 0.52	1.131 ± 0.01
338.15 K	774.15 ± 0.81	1.381 ± 0.0028	1106.6 ± 0.52	1.021 ± 0.0098
343.15 K	769.94 ± 0.81	1.3788 ± 0.0028	1090.1 ± 0.52	0.925 ± 0.0096

CCCCCCCC/C=C\CCCCCCCC(=O)OCC [ethyl (Z)-9-octadeceneoate]
Details	mass density, [1] [kg/m3]	refractive index, [2]	speed of sound, [1] [m/s]	viscosity, [1] [mPa·s]
298.15 K	865.23 ± 1	1.4481 ± 0.0028	1376.2 ± 2	5.674 ± 0.061
303.15 K	861.6 ± 1	1.4461 ± 0.0028	1358.4 ± 2	4.999 ± 0.054
308.15 K	857.97 ± 1	1.4441 ± 0.0028	1340.8 ± 2	4.435 ± 0.048

CCCCCCCCCCCCCCCC [hexadecane]
Details	mass density, [1] [kg/m3]	refractive index, [2]	speed of sound, [1] [m/s]	viscosity, [1] [mPa·s]
298.15 K	769.87 ± 0.83	1.4318 ± 0.0028	1338.5 ± 1	3.035 ± 0.021
303.15 K	766.4 ± 0.83	1.4296 ± 0.0028	1319.8 ± 1	2.708 ± 0.019
308.15 K	762.95 ± 0.83	1.4275 ± 0.0028	1301.3 ± 1	2.432 ± 0.017

CCCO [propan-1-ol]
Details	mass density, [1] [kg/m3]	refractive index, [2]	speed of sound, [1] [m/s]	viscosity, [1] [mPa·s]
298.15 K	799.93 ± 0.81	1.3831 ± 0.0028	1205.7 ± 0.51	1.926 ± 0.012
303.15 K	795.89 ± 0.81	1.381 ± 0.0028	1188.6 ± 0.51	1.716 ± 0.012
308.15 K	791.82 ± 0.81	1.3789 ± 0.0028	1171.6 ± 0.51	1.532 ± 0.011

CCCO [propan-1-ol] + CCCCCCCC/C=C\CCCCCCCC(=O)OCC
Details	mass density, [3] [kg/m3]	refractive index, [4]	speed of sound, [3] [m/s]	viscosity, [3] [mPa·s]
293.15 K	803.95 ± 0.81	1.3852 ± 0.0028	1223 ± 0.52	2.147 ± 0.013
298.15 K	799.93 ± 0.81	1.3831 ± 0.0028	1205.7 ± 0.52	1.926 ± 0.012
303.15 K	795.89 ± 0.81	1.381 ± 0.0028	1188.6 ± 0.52	1.716 ± 0.012
308.15 K	791.82 ± 0.81	1.3789 ± 0.0028	1171.6 ± 0.52	1.532 ± 0.011
313.15 K	787.71 ± 0.81	1.3768 ± 0.0028	1154.7 ± 0.52	1.379 ± 0.011
318.15 K	783.56 ± 0.81	1.3747 ± 0.0028	1137.9 ± 0.52	1.234 ± 0.01
323.15 K	779.36 ± 0.81	1.3726 ± 0.0028	1121.1 ± 0.52	1.112 ± 0.01
328.15 K	775.1 ± 0.81	1.3704 ± 0.0028	1104.3 ± 0.52	1.004 ± 0.0098
333.15 K	770.78 ± 0.81	1.3682 ± 0.0028	1087.5 ± 0.52	0.9109 ± 0.0096
338.15 K	766.4 ± 0.81	1.366 ± 0.0028	1070.6 ± 0.52	0.8241 ± 0.0094
343.15 K	761.93 ± 0.81	1.3635 ± 0.0028	1053.8 ± 0.52	0.7468 ± 0.0092

CCCO [propan-1-ol] + CCCCCCCCCCCCCCCC
Details	mass density, [3] [kg/m3]	refractive index, [4]	speed of sound, [3] [m/s]	viscosity, [3] [mPa·s]
293.15 K	803.95 ± 0.81	1.3852 ± 0.0028	1223 ± 0.52	2.147 ± 0.013
298.15 K	799.93 ± 0.81	1.3831 ± 0.0028	1205.7 ± 0.52	1.926 ± 0.012
303.15 K	795.89 ± 0.81	1.381 ± 0.0028	1188.6 ± 0.52	1.716 ± 0.012
308.15 K	791.82 ± 0.81	1.3789 ± 0.0028	1171.6 ± 0.52	1.532 ± 0.011
313.15 K	787.71 ± 0.81	1.3768 ± 0.0028	1154.7 ± 0.52	1.379 ± 0.011
318.15 K	783.56 ± 0.81	1.3747 ± 0.0028	1137.9 ± 0.52	1.234 ± 0.01
323.15 K	779.36 ± 0.81	1.3726 ± 0.0028	1121.1 ± 0.52	1.112 ± 0.01
328.15 K	775.1 ± 0.81	1.3704 ± 0.0028	1104.3 ± 0.52	1.004 ± 0.0098
333.15 K	770.78 ± 0.81	1.3682 ± 0.0028	1087.5 ± 0.52	0.9109 ± 0.0096
338.15 K	766.4 ± 0.81	1.366 ± 0.0028	1070.6 ± 0.52	0.8241 ± 0.0094
343.15 K	761.93 ± 0.81	1.3635 ± 0.0028	1053.8 ± 0.52	0.7468 ± 0.0092

From the NIST ThermoML archive (doi:10.1016/j.fluid.2018.05.028)
